This note sets out measurements from publication PMC6792352, “Limited Chemical Structural Diversity Found to Modulate Thyroid Hormone Receptor in the Tox21 Chemical Library” (Environmental Health Perspectives, 2019).

Counter-ions that a name gives are not always drawn.

One data set in a line: in vitro. The conditions noted are these: rat, gh3-tre-luc cells, AC50 (uM) modified / 1000.
What is called CC50 is the concentration that lowers cell viability or growth by half. A higher CC50 goes with better tolerance by the cells. On to `O=C1NC(=O)[C@@H]2CC=CC[C@H]12` [1,2,3,6-Tetrahydrophthalimide], for which the CC50 at 24 h was over 90 µM.
`O=C(O)c1cccc(C(=O)O)c1C(=O)O` [1,2,3-Benzenetricarboxylic acid] came in with a CC50 at 24 h of over 90 µM.
In turn, `O=c1nn[nH]c2ccccc12` [1,2,3-Benzotriazin-4(1H)-one] had a CC50 at 24 h of over 90 µM.
`c1ccc2[nH]nnc2c1` [1,2,3-Benzotriazole] showed a CC50 at 24 h of over 90 µM.
On the same count and under the same terms, under `Clc1cccc(Cl)c1Cl` [1,2,3-Trichlorobenzene] stands over 90 µM; under `Clc1cc(Cl)c(Cl)cc1Cl` [1,2,4,5-Tetrachlorobenzene], over 90 µM.
The compound `Cc1cc(C)c(C)cc1C` [1,2,4,5-Tetramethylbenzene] returned a CC50 at 24 h of over 90 µM.
The same measure, in the same setting: under `O=C(O)c1ccc(C(=O)O)c(C(=O)O)c1` [1,2,4-Benzenetricarboxylic acid] stands over 90 µM; under `c1nc[nH]n1` [1,2,4-Triazole, sodium salt], over 90 µM; under `Brc1ccc(Br)c(Br)c1` [1,2,4-Tribromobenzene], over 90 µM.
`Clc1ccc(Cl)c(Cl)c1` [1,2,4-Trichlorobenzene]: the CC50 at 24 h was over 90 µM.
Still for that read-out and setting: to `COc1ccc(OC)c(OC)c1` [1,2,4-Trimethoxybenzene] belongs over 90 µM; to `Cc1ccc(C)c(C)c1` [1,2,4-Trimethylbenzene], over 90 µM.
Still for that read-out and setting: to `OCCCCC(O)CO` (stereo not drawn) [1,2,6-Hexanetriol] belongs over 90 µM.
`N#Cc1ccccc1C#N` [1,2-Benzenedicarbonitrile] displayed a CC50 at 24 h of over 70 µM.
Consider `O=c1[nH]sc2ccccc12` [1,2-Benzisothiazolin-3-one], for which the CC50 at 24 h amounted to 5.86 µM.
In turn, `ClCCOCCOCCCl` [1,2-Bis(2-chloroethoxy)ethane] came in with a CC50 at 24 h of over 90 µM.
For `c1ccc(SCCSc2ccccc2)cc1` [1,2-Bis(phenylthio)ethane], the CC50 at 24 h was over 90 µM.
`N[C@@H]1CCCC[C@H]1N` [1,2-Cyclohexanediamine] returned a CC50 at 24 h of over 90 µM.
Compound `O=C(OCC1CO1)C1CCCCC1C(=O)OCC1CO1` (stereo not drawn) [1,2-Cyclohexanedicarboxylic acid, bis(oxiranylmethyl) ester] gave a cytotoxic concentration (CC50) at 24 h of 44.7 µM.
`CC(N)CN` (stereo not drawn) [1,2-Diaminopropane] gave a CC50 at 24 h of over 100 µM.
Still for that read-out and setting: under `N#CCCC(Br)(C#N)CBr` (stereo not drawn) [1,2-Dibromo-2,4-dicyanobutane] stands 16.2 µM; under `BrCC(Br)C1CCC(Br)C(Br)C1` (stereo not drawn) [1,2-Dibromo-4-(1,2-dibromoethyl)cyclohexane], 55.8 µM.
Take `Clc1ccc(C(Cl)(Cl)Cl)cc1Cl` [1,2-Dichloro-4-(trichloromethyl)benzene]: the CC50 at 24 h was over 90 µM.
`FC(F)(F)c1ccc(Cl)c(Cl)c1` [1,2-Dichloro-4-(trifluoromethyl)benzene]: the CC50 at 24 h was over 90 µM.
As for `Clc1ccccc1Cl` [1,2-Dichlorobenzene], the CC50 at 24 h is over 90 µM.
In turn, `ClCCCl` [1,2-Dichloroethane] yielded a CC50 at 24 h of over 90 µM.
Consider `CCOc1ccccc1OCC` [1,2-Diethoxybenzene], for which the CC50 at 24 h was over 90 µM.
In turn, `O=CNNC=O` [1,2-Diformylhydrazine] gave a CC50 at 24 h of over 90 µM.
Regarding `CC1=CC(C)(C)Nc2ccccc21` [1,2-Dihydro-2,2,4-trimethylquinoline], the 50% cytotoxic concentration (CC50) at 24 h was over 90 µM.
Consider `Cc1cccc([N+](=O)[O-])c1C` [1,2-Dimethyl-3-nitrobenzene], for which the CC50 at 24 h was over 90 µM.
For `CCCn1cc[n+](C)c1C` [1,2-Dimethyl-3-propylimidazolium iodide], the CC50 at 24 h was over 90 µM.
`Cc1ncc([N+](=O)[O-])n1C` [1,2-Dimethyl-5-nitroimidazole] showed a CC50 at 24 h of over 90 µM.
With `c1ccc(OCCOc2ccccc2)cc1` [1,2-Diphenoxyethane], the CC50 at 24 h is over 90 µM.
In the case of `O=C(C(=O)c1ccccc1)c1ccccc1` [1,2-Diphenylethanedione], the CC50 at 24 h is over 90 µM.
In turn, `C=CC1CO1` (stereo not drawn) [1,2-Epoxy-3-butene] yielded a CC50 at 24 h of over 100 µM.
Turning to `CCC1CO1` (stereo not drawn) [1,2-Epoxybutane], the CC50 at 24 h was over 90 µM.
Still for that read-out and setting: under `CCCCCCCCC1CO1` (stereo not drawn) [1,2-Epoxydecane] stands over 90 µM.
Compound `CCCCCCCCCCC1CO1` (stereo not drawn) [1,2-Epoxydodecane] returned a CC50 at 24 h of over 90 µM.
`CCCCCCCCCCCCCCC1CO1` (stereo not drawn) [1,2-Epoxyhexadecane] returned a CC50 at 24 h of over 90 µM.
`CCCCCCCCCCCCC1CO1` (stereo not drawn) [1,2-Epoxytetradecane] displayed a CC50 at 24 h of over 90 µM.
`CC(=O)OCCOC(C)=O` [1,2-Ethanediol diacetate] displayed a CC50 at 24 h of over 90 µM.
For the compound `CCCCCCC(O)CO` (stereo not drawn) [1,2-Octanediol], the CC50 at 24 h is over 90 µM.
As to `Nc1ccccc1N` [1,2-Phenylenediamine dihydrochloride], the CC50 at 24 h was over 90 µM.
Still for that read-out and setting: under `CC(O)CO` (stereo not drawn) [1,2-Propylene glycol] stands over 90 µM; under `CC(C)(C)OC(=O)N1C[C@@H](F)C[C@H]1C(=O)O` [1,2-Pyrrolidinedicarboxylicacid,4-fluoro-,1-(1,1-dimethylethyl)ester,(2S,4S)-], over 90 µM.
On the same count and under the same terms, under `O=C(Cl)c1cc(C(=O)Cl)cc(C(=O)Cl)c1` [1,3,5-Benzenetricarbonyl trichloride] stands 80 µM; under `O=C(O)c1cc(C(=O)O)cc(C(=O)O)c1` [1,3,5-Benzenetricarboxylic acid], over 90 µM; under `C=CCOc1c(Br)cc(Br)cc1Br` [1,3,5-Tribromo-2-(prop-2-en-1-yloxy)benzene], over 90 µM.
`COc1c(Br)cc(Br)c(C)c1Br` [1,3,5-Tribromo-2-methoxy-4-methylbenzene] came in with a half-maximal cytotoxic concentration (CC50) at 24 h of over 90 µM.
The same measure, in the same setting: under `Clc1cc(Cl)cc(Cl)c1` [1,3,5-Trichlorobenzene] stands over 90 µM; under `CCN1CN(CC)CN(CC)C1` [1,3,5-Triethylhexahydro-s-triazine], over 90 µM; under `Oc1cc(O)cc(O)c1` [1,3,5-Trihydroxybenzene dihydrate], over 50 µM.
On the same count and under the same terms, to `CC(C)c1cc(C(C)C)cc(C(C)C)c1` [1,3,5-Triisopropylbenzene] belongs over 90 µM.
Consider `COc1cc(OC)cc(OC)c1` [1,3,5-Trimethoxybenzene], for which the CC50 at 24 h is over 50 µM.
With `Cc1cc(C)cc(C)c1` [1,3,5-Trimethylbenzene], the CC50 at 24 h was over 90 µM.
Still for that read-out and setting: to `C1OCOCO1` [1,3,5-Trioxane] belongs over 90 µM; to `CO[Si](CCCn1c(=O)n(CCC[Si](OC)(OC)OC)c(=O)n(CCC[Si](OC)(OC)OC)c1=O)(OC)OC` [1,3,5-Tris[3-(trimethoxysilyl)propyl]-1,3,5-triazinane-2,4,6-trione], over 70 µM.
Compound `N#CCCCC(C#N)CCC#N` (stereo not drawn) [1,3,6-Hexanetricarbonitrile] gave a CC50 at 24 h of over 90 µM.
`Nc1cccc(N)c1` [1,3-Benzenediamine dihydrochloride]: the CC50 at 24 h is over 90 µM.
In turn, `N#Cc1cccc(C#N)c1` [1,3-Benzenedicarbonitrile] yielded a CC50 at 24 h of over 90 µM.
`O=C(Cl)c1cccc(C(=O)Cl)c1` [1,3-Benzenedicarbonyl dichloride] gave a CC50 at 24 h of over 90 µM.

Staying with this data set, now noted: rat, gh3-tre-luc cells, AC50 (uM) modified / 1000, Tox21_110001=Tox21_200147; viability, 1 nM T3 present, 24 h.
For the compound `CCC(Cl)CCl` (stereo not drawn) [1,2-Dichlorobutane], the cytotoxic concentration (CC50) at 24 h was over 90 µM.

Still in this data set, the particulars now being: rat, gh3-tre-luc cells, AC50 (uM) modified / 1000, Tox21_110001=Tox21_200362; viability, 1 nM T3 present, 24 h.
`CC(Cl)CCl` (stereo not drawn) [1,2-Dichloropropane] returned a CC50 at 24 h of over 90 µM.

Staying with this data set, now noted: rat, gh3-tre-luc cells, AC50 (uM) modified / 1000, Tox21_110001=Tox21_200382; viability, 1 nM T3 present, 24 h.
As to `ClCC(Br)CBr` (stereo not drawn) [1,2-Dibromo-3-chloropropane], the CC50 at 24 h was over 90 µM.

Still in this data set, the particulars now being: rat, gh3-tre-luc cells, AC50 (uM) modified / 1000, Tox21_110001=Tox21_200566; viability, 1 nM T3 present, 24 h.
With `FC(Cl)(Cl)C(F)(Cl)Cl` [1,2-Difluoro-1,1,2,2-tetrachloroethane], the CC50 at 24 h is over 100 µM.

The data set is the same for the next values; noted with them: rat, gh3-tre-luc cells, AC50 (uM) modified / 1000, Tox21_110001=Tox21_201194; viability, 1 nM T3 present, 24 h.
`CNNC` [1,2-Dimethylhydrazine dihydrochloride] showed a CC50 at 24 h of over 90 µM.

The same data set, now with this note: rat, gh3-tre-luc cells, AC50 (uM) modified / 1000, Tox21_110001=Tox21_201332; viability, 1 nM T3 present, 24 h.
With `Cc1ccc([N+](=O)[O-])cc1C` [1,2-Dimethyl-4-nitrobenzene], the cytotoxic concentration (CC50) at 24 h was over 90 µM.

Staying with this data set, now noted: rat, gh3-tre-luc cells, AC50 (uM) modified / 1000, Tox21_110001=Tox21_201427; viability, 1 nM T3 present, 24 h.
Take `BrCCBr` [1,2-Dibromoethane]: the CC50 at 24 h was over 90 µM.

Still in this data set, the particulars now being: rat, gh3-tre-luc cells, AC50 (uM) modified / 1000, Tox21_110001=Tox21_202023; viability, 1 nM T3 present, 24 h.
On to `ClCC(Cl)CCl` [1,2,3-Trichloropropane], for which the CC50 at 24 h was over 90 µM.

The data set is the same for the next values; noted with them: rat, gh3-tre-luc cells, AC50 (uM) modified / 1000, Tox21_110001=Tox21_202323; viability, 1 nM T3 present, 24 h.
In turn, `c1ccc(NNc2ccccc2)cc1` [1,2-Diphenylhydrazine] gave a CC50 at 24 h of over 90 µM.

Staying with this data set, now noted: rat, gh3-tre-luc cells, AC50 (uM) modified / 1000, Tox21_110001=Tox21_300492; viability, 1 nM T3 present, 24 h.
Turning to `c1ccc(NNc2ccccc2)cc1` [1,2-Diphenylhydrazine], the CC50 at 24 h was determined as 67.9 µM.

The same data set, now with this note: rat, gh3-tre-luc cells, AC50 (uM) modified / 1000, Tox21_110001=Tox21_301527; viability, 1 nM T3 present, 24 h.
For `C=C[Si]1(C)O[Si](C)(C=C)O[Si](C)(C=C)O[Si](C)(C=C)O1` (stereo not drawn) [1,3,5,7-Tetramethyl-1,3,5,7-tetravinylcyclotetrasiloxane], the CC50 at 24 h was over 90 µM.

The data set is the same for the next values; noted with them: rat, gh3-tre-luc cells, AC50 (uM) modified / 1000, Tox21_110001=Tox21_302159; viability, 1 nM T3 present, 24 h.
`O=C(Cc1ccccc1)c1ccccc1` [1,2-Diphenylethanone] displayed a CC50 at 24 h of over 90 µM.

The same data set, now with this note: rat, gh3-tre-luc cells, AC50 (uM) modified / 1000, Tox21_110001=Tox21_302297; viability, 1 nM T3 present, 24 h.
Consider `COc1ccccc1OC` [1,2-Dimethoxybenzene], for which the CC50 at 24 h was over 90 µM.
